# Assay results as given in patent US6737383B1, “Herbicidal oxadiazolidines” (priority 1999, dated 2004).
# Experiments:
# wild oat = assay: Test B pre/postemergence wild oat; format: in vivo, Avena fatua
# Method in brief: (§1)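 Test chemicals in a non-phytotoxic solvent mixture with surfactant were sprayed preemergence onto planted seeds and postemergence onto plants 2 to 18 cm tall (1- to 4-leaf stage). After twelve to sixteen days in a greenhouse, injury was visually rated against untreated controls from 0 (no effect) to 10 (complete control).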
# bamyardgrass = assay: Test B flood test barnyardgrass; format: in vivo, Echinochloa crus-galli
# Method in brief: (§2)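 Read-out is a visual response score from 0 (no effect) to 10 (complete control), assigned by comparison with untreated controls. Treatment was applied at the 2-leaf stage, and plants stayed in the greenhouse for twelve to sixteen days before scoring.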
# smallflower flatsedge = assay: Test B flood test smallflower flatsedge; format: in vivo, Cyperus difformis
# Method in brief: as §2
# wheat = assay: Test B pre/postemergence wheat; format: in vivo, Triticum aestivum
# Method in brief: as §1
# surinam grass = assay: Test B pre/postemergence surinam grass; format: in vivo, Brachiaria decumbens
# Method in brief: as §1
# rice = assay: Test B flood test rice; format: in vivo, Oryza sativa
# Method in brief: as §2
# corn = assay: Test B pre/postemergence corn; format: in vivo, Zea mays
# Method in brief: as §1
# velvetleaf = assay: Test B pre/postemergence velvetleaf; format: in vivo, Abutilon theophrasti
# Method in brief: as §1
# pigweed = assay: Test B pre/postemergence pigweed; format: in vivo, Amaranthus retroflexus
# Method in brief: as §1
# rape = assay: Test B pre/postemergence rape; format: in vivo, Brassica napus
# Method in brief: as §1
# giant foxtail = assay: Test B pre/postemergence giant foxtail; format: in vivo, Setaria faberii
# Method in brief: as §1
# sugar beet = assay: Test B pre/postemergence sugar beet; format: in vivo, Beta vulgaris
# Method in brief: as §1
# duck salad = assay: Test B flood test duck salad; format: in vivo, Heteranthera limosa
# Method in brief: as §2
# bedstraw = assay: Test B pre/postemergence bedstraw; format: in vivo, Galium aparine
# Method in brief: as §1
# purple nutsedge = assay: Test B pre/postemergence purple nutsedge; format: in vivo, Cyperus rotundus
# Method in brief: as §1
# morningglory = assay: Test B pre/postemergence morningglory; format: in vivo, Ipomoea hederacea
# Method in brief: as §1
# crabgrass = assay: Test B pre/postemergence crabgrass; format: in vivo, Digitaria sanguinalis
# Method in brief: as §1
# blackgrass = assay: Test B pre/postemergence blackgrass; format: in vivo, Alopecurus myosuroides
# Method in brief: as §1
# soybean = assay: Test B pre/postemergence soybean; format: in vivo, Glycine max
# Method in brief: as §1
# cocklebur = assay: Test B pre/postemergence cocklebur; format: in vivo, Xanthium strumarium
# Method in brief: as §1
# [1] = Preemergence, Rate 62 g/ha, scale of 0 to 10 where 0 is no effect and 10 is complete control
# [2] = Preemergence, Rate 250 g/ha, scale of 0 to 10 where 0 is no effect and 10 is complete control
# [3] = Preemergence, Rate 500 g/ha, scale of 0 to 10 where 0 is no effect and 10 is complete control
# [4] = Rate 125 g/ha, Preemergence, scale of 0 to 10 where 0 is no effect and 10 is complete control
# [5] = Rate 500 g/ha, Postemergence, scale 0 to 10, 0 no effect, 10 complete control
# [6] = Rate 62 g/ha, headed Pre-emergence (flood test species), scale 0 to 10 (0 no effect, 10 complete control)
# [7] = Rate 125 g/ha, Pre-emergence, flood test species, scale 0 to 10 where 0 is no effect and 10 is complete control
# [8] = Rate 250 g/ha, Pre-emergence, flood-test species, scale 0 to 10, 0 is no effect, 10 is complete control
# [9] = Rate 500 g/ha, Pre-emergence, flood test species, scale 0 to 10 (0 no effect, 10 complete control)
# [10] = Rate 62 g/ha, Postemergence, scale of 0 to 10 where 0 is no effect and 10 is complete control
# [11] = Rate 125 g/ha, Postemergence, scale 0 to 10
smiles,measurement,setting,value
C=CCn1c(=O)on(C(=O)N(c2ccc(F)cc2)C2CCCCCC2)c1=O [Compound 249],Wild oats plant response rating,wild oat; [1],0
same,Wild oats plant response rating,wild oat; [2],0
same,"Plant response rating, Wild oats",wild oat; [3],0
same,Wild oats plant response rating,wild oat; [4],0
same,Wild oats plant response rating,wild oat; [5],0
same,Barnyardgrass plant response rating,bamyardgrass; [6],0
same,Barnyardgrass plant response rating,bamyardgrass; [7],0
same,Barnyardgrass plant response rating,bamyardgrass; [8],0
same,Barnyardgrass plant response rating,bamyardgrass; [9],0
same,S. Flatsedge plant response rating,smallflower flatsedge; [6],0
same,S. Flatsedge plant response rating,smallflower flatsedge; [7],0
same,S. Flatsedge plant response rating,smallflower flatsedge; [8],0
same,S. Flatsedge plant response rating,smallflower flatsedge; [9],0
same,Wheat plant response rating,wheat; [1],0
same,Wheat plant response rating,wheat; [2],0
same,"Plant response rating, Wheat",wheat; [3],0
same,Wheat plant response rating,wheat; [4],0
same,Wheat plant response rating,wheat; [5],0
same,B. signalgrass plant response rating,surinam grass; [1],0
same,B. signalgrass plant response rating,surinam grass; [2],0
same,"Plant response rating, B. signalgrass",surinam grass; [3],0
same,B. signalgrass plant response rating,surinam grass; [10],0
same,B. signalgrass plant response rating,"surinam grass; Rate 125 g/ha, Postemergence, scale 0 (no effect) to 10 (complete control)",0
same,B. signalgrass plant response rating,surinam grass; [4],0
same,"Plant response rating (0 to 10; 0 is no effect, 10 is complete control), B. signalgrass","surinam grass; Rate 250 g/ha, Postemergence",0
same,B. signalgrass plant response rating,surinam grass; [5],0
same,Rice plant response rating,rice; [6],0
same,Rice plant response rating,rice; [7],0
same,Rice plant response rating,rice; [8],0
same,Rice plant response rating,rice; [9],0
same,Corn plant response rating,corn; [1],0
same,Corn plant response rating,corn; [2],0
same,"Plant response rating, Corn",corn; [3],0
same,Corn plant response rating,corn; [10],0
same,Corn plant response rating,corn; [11],0
same,Corn plant response rating,corn; [4],0
same,"Plant response rating (0 to 10; 0 is no effect, 10 is complete control), Corn","corn; Rate 250 g/ha, Postemergence",0
same,Corn plant response rating,corn; [5],0
same,Velvetleaf plant response rating,velvetleaf; [1],0
same,Velvetleaf plant response rating,velvetleaf; [2],0
same,"Plant response rating, Velvetleaf",velvetleaf; [3],0
same,Velvetleaf plant response rating,velvetleaf; [4],0
same,Velvetleaf plant response rating,velvetleaf; [5],0
same,Redroot pigweed plant response rating,pigweed; [1],0
same,Redroot pigweed plant response rating,pigweed; [2],0
same,"Plant response rating, Redroot pigweed",pigweed; [3],0
same,Redroot pigweed plant response rating,pigweed; [4],0
same,"Plant response rating (0 to 10; 0 is no effect, 10 is complete control), Redroot pigweed","pigweed; Rate 250 g/ha, Postemergence",0
same,Redroot pigweed plant response rating,pigweed; [5],3
same,Rape plant response rating,rape; [1],0
same,Rape plant response rating,rape; [2],0
same,"Plant response rating, Rape",rape; [3],0
same,Rape plant response rating,rape; [4],0
same,"Plant response rating (0 to 10; 0 is no effect, 10 is complete control), Rape","rape; Rate 250 g/ha, Postemergence",0
same,Rape plant response rating,rape; [5],0
same,Giant foxtail plant response rating,giant foxtail; [1],0
same,Giant foxtail plant response rating,giant foxtail; [2],3
same,"Plant response rating, Giant foxtail",giant foxtail; [3],5
same,Giant foxtail plant response rating,giant foxtail; [4],0
same,"Plant response rating (0 to 10; 0 is no effect, 10 is complete control), Giant foxtail","giant foxtail; Rate 250 g/ha, Postemergence",0
same,Giant foxtail plant response rating,giant foxtail; [5],0
same,Sugarbeets plant response rating,sugar beet; [1],0
same,Sugarbeets plant response rating,sugar beet; [2],0
same,"Plant response rating, Sugarbeets",sugar beet; [3],0
same,Sugarbeets plant response rating,sugar beet; [4],0
same,Sugarbeets plant response rating,sugar beet; [5],2
same,Ducksalad plant response rating,duck salad; [6],0
same,Ducksalad plant response rating,duck salad; [7],0
same,Ducksalad plant response rating,duck salad; [8],0
same,Ducksalad plant response rating,duck salad; [9],0
same,Bedstraw plant response rating,bedstraw; [1],0
same,Bedstraw plant response rating,bedstraw; [2],0
same,"Plant response rating, Bedstraw",bedstraw; [3],0
same,Bedstraw plant response rating,bedstraw; [10],0
same,Bedstraw plant response rating,bedstraw; [11],0
same,"Plant response rating (0 to 10; 0 is no effect, 10 is complete control), Bedstraw","bedstraw; Rate 250 g/ha, Postemergence",0
same,Bedstraw plant response rating,bedstraw; [5],0
same,Nutsedge plant response rating,purple nutsedge; [1],0
same,Nutsedge plant response rating,purple nutsedge; [2],0
same,"Plant response rating, Nutsedge",purple nutsedge; [3],0
same,Nutsedge plant response rating,purple nutsedge; [4],0
same,"Plant response rating (0 to 10; 0 is no effect, 10 is complete control), Nutsedge","purple nutsedge; Rate 250 g/ha, Postemergence",0
same,Nutsedge plant response rating,purple nutsedge; [5],0
same,Morningglory plant response rating,morningglory; [1],0
same,Morningglory plant response rating,morningglory; [2],0
same,"Plant response rating, Morningglory",morningglory; [3],0
same,Morningglory plant response rating,morningglory; [4],0
same,"Plant response rating (0 to 10; 0 is no effect, 10 is complete control), Morningglory","morningglory; Rate 250 g/ha, Postemergence",0
same,Morningglory plant response rating,morningglory; [5],3
same,Crabgrass plant response rating,crabgrass; [1],0
same,Crabgrass plant response rating,crabgrass; [2],0
same,"Plant response rating, Crabgrass",crabgrass; [3],2
same,Crabgrass plant response rating,crabgrass; [4],0
same,"Plant response rating (0 to 10; 0 is no effect, 10 is complete control), Crabgrass","crabgrass; Rate 250 g/ha, Postemergence",0
same,Crabgrass plant response rating,crabgrass; [5],0
same,Blackgrass plant response rating,blackgrass; [1],0
same,Blackgrass plant response rating,blackgrass; [2],0
same,"Plant response rating, Blackgrass",blackgrass; [3],0
same,Blackgrass plant response rating,blackgrass; [10],0
same,Blackgrass plant response rating,blackgrass; [11],0
same,Blackgrass plant response rating,blackgrass; [4],0
same,"Plant response rating (0 to 10; 0 is no effect, 10 is complete control), Blackgrass","blackgrass; Rate 250 g/ha, Postemergence",0
same,Blackgrass plant response rating,blackgrass; [5],0
same,Soybean plant response rating,soybean; [1],0
same,Soybean plant response rating,soybean; [2],0
same,"Plant response rating, Soybean",soybean; [3],0
same,Soybean plant response rating,soybean; [4],0
same,Soybean plant response rating,soybean; [5],4
same,Cocklebur plant response rating,cocklebur; [1],0
same,Cocklebur plant response rating,cocklebur; [2],0
same,"Plant response rating, Cocklebur",cocklebur; [3],0
same,Cocklebur plant response rating,cocklebur; [10],0
same,Cocklebur plant response rating,cocklebur; [11],0
same,Cocklebur plant response rating,cocklebur; [4],0
same,"Plant response rating (0 to 10; 0 is no effect, 10 is complete control), Cocklebur","cocklebur; Rate 250 g/ha, Postemergence",0
same,Cocklebur plant response rating,cocklebur; [5],0
